Experimental data reported in patent US9399626B2, “2-thiopyrimidinones” (Pfizer Inc., priority 2011, dated 2016).

Biological target: T1, MPO (purified from human polynuclear leukocytes) (Homo sapiens, UniProt P05164)
T1 construct: purified from human polynuclear leukocytes; purchased Calbiochem/EMD Biosciences; host or cells: human polynuclear leukocytes (natural source)
Assay: MPO Amplex Red Activity Assay
Format: biochemical
Details: Table 1A, 2 μM H2O2, pH 7.4
Summary of the method: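 Potency is given as kinact/KI: kobs values from 600 s progress curves, minus the uninhibited rate, are fit against inhibitor concentration. Reactions use 2 μM H2O2, 30 μM Amplex Red, pH 7.4 phosphate buffer with NaCl, DTPA and 2% DMSO, started with […] human MPO. Readout is resorufin fluorescence, catalase background subtracted.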

T1 sequence (P05164 279-745 limits assumed): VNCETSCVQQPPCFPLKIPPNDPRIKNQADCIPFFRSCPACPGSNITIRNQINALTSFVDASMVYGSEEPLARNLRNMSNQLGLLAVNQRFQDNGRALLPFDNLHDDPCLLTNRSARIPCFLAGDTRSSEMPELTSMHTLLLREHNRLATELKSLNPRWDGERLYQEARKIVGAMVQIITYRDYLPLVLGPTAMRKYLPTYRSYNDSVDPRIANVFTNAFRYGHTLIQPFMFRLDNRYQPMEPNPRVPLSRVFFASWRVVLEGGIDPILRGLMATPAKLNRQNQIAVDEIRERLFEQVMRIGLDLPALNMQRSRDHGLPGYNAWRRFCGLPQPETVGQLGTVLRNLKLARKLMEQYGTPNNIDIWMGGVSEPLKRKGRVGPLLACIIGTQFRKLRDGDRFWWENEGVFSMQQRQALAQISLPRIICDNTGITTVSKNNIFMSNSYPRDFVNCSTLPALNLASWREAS
T1 sequence (P05164 165-273 limits assumed): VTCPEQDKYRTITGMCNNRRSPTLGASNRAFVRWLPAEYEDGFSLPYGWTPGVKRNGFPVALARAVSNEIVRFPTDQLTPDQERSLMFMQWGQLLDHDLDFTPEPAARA

Structure (SMILES) | MPO kinact/Ki
COc1ccc(-c2cc(=O)[nH]c(=S)n2CCO)cc1OC [Example 355, 6-(3,4-dimethoxyphenyl)-1-(2-hydroxyethyl)-2-thioxo-2,3-dihydropyrimidin-4(1H)-one] | 1540 1/s per M
O=c1cc(-c2ccc3c(c2)OCCO3)n(CCO)c(=S)[nH]1 [Example 356, 6-(2,3-dihydro-1,4-benzodioxin-6-yl)-1-(2-hydroxyethyl)-2-thioxo-2,3-dihydropyrimidin-4(1H)-one] | 2910 1/s per M
NCCn1c(-c2ccc3c(c2)OCCO3)cc(=O)[nH]c1=S [Example 357, 1-(2-aminoethyl)-6-(2,3-dihydro-1,4-benzodioxin-6-yl)-2-thioxo-2,3-dihydropyrimidin-4(1H)-one] | 2940 1/s per M
NC(=O)Cn1c(-c2ccc3c(c2)OCCO3)cc(=O)[nH]c1=S [Example 358, 2-[6-(2,3-dihydro-1,4-benzodioxin-6-yl)-4-oxo-2-thioxo-3,4-dihydropyrimidin-1(2H)-yl]acetamide] | 1710 1/s per M
COc1ccc(Cl)cc1-c1cc(=O)[nH]c(=S)n1C[C@H](O)CO [Example 359, 6-(5-chloro-2-methoxyphenyl)-1-[(2S)-2,3-dihydroxypropyl]-2-thioxo-2,3-dihydropyrimidin-4(1H)-one] | 2660 1/s per M
COc1ccc(-c2cc(=O)[nH]c(=S)n2CCN)cc1OC [Example 360, 1-(2-aminoethyl)-6-(3,4-dimethoxyphenyl)-2-thioxo-2,3-dihydropyrimidin-4(1H)-one] | 2280 1/s per M
COc1ccc(Cl)cc1-c1cc(=O)[nH]c(=S)n1C[C@H](C)N [Example 361, 1-[(2S)-2-aminopropyl]-6-(5-chloro-2-methoxyphenyl)-2-thioxo-2,3-dihydropyrimidin-4(1H)-one] | 2060 1/s per M
NCCn1c(-c2cccc3ncsc23)cc(=O)[nH]c1=S [Example 362, 1-(2-aminoethyl)-6-(1,3-benzothiazol-7-yl)-2-thioxo-2,3-dihydropyrimidin-4(1H)-one] | 2690 1/s per M
NC(=O)Cn1c(-c2cccc3c2OCCO3)cc(=O)[nH]c1=S [Example 363, 2-[6-(2,3-dihydro-1,4-benzodioxin-5-yl)-4-oxo-2-thioxo-3,4-dihydropyrimidin-1(2H)-yl]acetamide] | 9680 1/s per M
NC(=O)Cn1c(-c2cccc3c2OCC3)cc(=O)[nH]c1=S [Example 364, 2-[6-(2,3-dihydro-1-benzofuran-7-yl)-4-oxo-2-thioxo-3,4-dihydropyrimidin-1(2H)-yl]acetamide] | 6580 1/s per M
CSc1ccccc1-c1cc(=O)[nH]c(=S)n1CC(N)=O [Example 365, 2-{6-[2-(methylsulfanyl)phenyl]-4-oxo-2-thioxo-3,4-dihydropyrimidin-1(2H)yl}acetamide] | 9290 1/s per M
O=c1cc(-c2ccccc2O)n(CCO)c(=S)[nH]1 [Example 366, 1-(2-hydroxyethyl)-6-(2-hydroxyphenyl)-2-thioxo-2,3-dihydropyrimidin-4(1H)-one] | 13600 1/s per M
NC(=O)Cn1c(-c2cccc3ncccc23)cc(=O)[nH]c1=S [Example 367, 2-[4-oxo-6-(quinolin-5-yl)-2-thioxo-3,4-dihydropyrimidin-1(2H)-yl]acetamide] | 1340 1/s per M
NC(=O)Cn1c(-c2ccccc2O)cc(=O)[nH]c1=S [Example 368, 2-[6-(2-hydroxyphenyl)-4-oxo-2-thioxo-3,4-dihydropyrimidin-1(2H)-yl]acetamide] | 3270 1/s per M
COc1ccc(Cl)cc1-c1cc(=O)[nH]c(=S)n1CC(=O)NCCN [Example 369, N-(2-aminoethyl)-2-[6-(5-chloro-2-methoxyphenyl)-4-oxo-2-thioxo-3,4-dihydropyrimidin-1(2H)-yl]acetamide] | 8040 1/s per M
COc1ccc(OC)c(-c2cc(=O)[nH]c(=S)n2CC(=O)NCCN)c1 [Example 370, N-(2-aminoethyl)-2-[6-(2,5-dimethoxyphenyl)-4-oxo-2-thioxo-3,4-dihydropyrimidin-1(2H)-yl]acetamide] | 9060 1/s per M
COc1ccc(F)cc1-c1cc(=O)[nH]c(=S)n1CC(=O)NCCN [Example 371, N-(2-aminoethyl)-2-[6-(5-fluoro-2-methoxyphenyl)-4-oxo-2-thioxo-3,4-dihydropyrimidin-1(2H)-yl]acetamide] | 4570 1/s per M
COc1ccccc1-c1cc(=O)[nH]c(=S)n1CC(=O)NCCN [Example 372, N-(2-aminoethyl)-2-[6-(2-methoxyphenyl)-4-oxo-2-thioxo-3,4-dihydropyrimidin-1(2H)-yl]acetamide] | 6250 1/s per M

Structure (SMILES) | MPO kinact/Ki
COc1ccc(C)cc1-c1cc(=O)[nH]c(=S)n1CC(=O)NCCN [Example 373, N-(2-aminoethyl)-2-[6-(2-methoxy-5-methylphenyl)-4-oxo-2-thioxo-3,4-dihydropyrimidin-1(2H)-yl]acetamide] | 12800 1/s per M
CNCCCn1c(-c2cc(F)ccc2OC)cc(=O)[nH]c1=S [Example 374, 6-(5-fluoro-2-methoxyphenyl)-1-[3-(methylamino)propyl]-2-thioxo-2,3-dihydropyrimidin-4(1H)-one] | 4600 1/s per M
COc1ccc(F)cc1-c1cc(=O)[nH]c(=S)n1CCCN(C)C(=N)N [Example 375, 1-{3-[6-(5-fluoro-2-methoxyphenyl)-4-oxo-2-thioxo-3,4-dihydropyrimidin-1(2H)yl]propyl}-1-methylguanidine] | 11300 1/s per M
COc1ccc(Cl)cc1-c1cc(=O)[nH]c(=S)n1CC(=O)NC(=N)N [Example 376, N-carbamidoyl-2-[6-(5-chloro-2-methoxyphenyl)-4-oxo-2-thioxo-3,4-dihydropyrimidin-1(2H)-yl]acetamide] | 7870 1/s per M
NC(=O)Cn1c(-c2cc(Cl)ccc2O)cc(=O)[nH]c1=S [Example 377, 2-[6-(5-chloro-2-hydroxyphenyl)-4-oxo-2-thioxo-3,4-dihydropyrimidin-1(2H)-yl]acetamide] | 8770 1/s per M
COc1ccc(OCCO)c(-c2cc(=O)[nH]c(=S)n2CC(=O)NCCN)c1 [Example 378, N-(2-aminoethyl)-2-{6-[2-(2-hydroxyethoxy)-5-methoxyphenyl]-4-oxo-2-thioxo-3,4-dihydropyrimidin-1(2H)-yl}acetamide] | 5040 1/s per M
COc1ccc(OCCO)c(-c2cc(=O)[nH]c(=S)n2CCO)c1 [Example 379, 6-[2-(2-hydroxyethoxy)-5-methoxyphenyl]-1-(2-hydroxyethyl)-2-thioxo-2,3-dihydropyrimidin-4(1H)-one] | 7370 1/s per M
COc1ccc(OCCO)c(-c2cc(=O)[nH]c(=S)n2CC(N)=O)c1 [Example 380, 2-{6-[2-(2-hydroxyethoxy)-5-methoxyphenyl]-4-oxo-2-thioxo-3,4-dihydropyrimidin-1(2H)-yl}acetamide] | 4470 1/s per M
COc1ccc(-c2cc(=O)[nH]c(=S)n2CCNCCN)c(OC)c1 [Example 381, 1-{2-[(2-aminoethyl)amino]ethyl}-6-(2,4-dimethoxyphenyl)-2-thioxo-2,3-dihydropyrimidin-4(1H)-one] | 1970 1/s per M
NCCn1c(-c2ccccc2OC(F)(F)F)cc(=O)[nH]c1=S [Example 382, 1-(2-aminoethyl)-2-thioxo-6-[2-(trifluoromethoxy)phenyl]-2,3-dihydropyrimidin-4(1H)-one] | 2310 1/s per M
COc1ccc(-c2cc(=O)[nH]c(=S)n2CCNCCO)c(OC)c1 [Example 383, 6-(2,4-dimethoxyphenyl)-1-{2-[(2-hydroxyethyl)amino]ethyl}-2-thioxo-2,3-dihydropyrimidin-4(1H)-one] | 5230 1/s per M
COc1cccc(-c2cc(=O)[nH]c(=S)n2CC(N)=O)c1 [Example 384, 2-[6-(3-methoxyphenyl)-4-oxo-2-thioxo-3,4-dihydropyrimidin-1(2H)-yl]acetamide] | 2930 1/s per M
COc1ccc(-c2cc(=O)[nH]c(=S)n2CC(=O)NCCO)c(OC)c1 [Example 385, 2-[6-(2,4-dimethoxyphenyl)-4-oxo-2-thioxo-3,4-dihydropyrimidin-1(2H)-yl]-N-(2-hydroxyethyl)acetamide] | 3530 1/s per M
COc1cccc(OC)c1-c1cc(=O)[nH]c(=S)n1CC(N)=O [Example 386, 2-[6-(2,6-dimethoxyphenyl)-4-oxo-2-thioxo-3,4-dihydropyrimidin-1(2H)-yl}acetamide] | 4960 1/s per M
COc1cc(OCCO)ccc1-c1cc(=O)[nH]c(=S)n1CC(N)=O [Example 387, 2-{6-[4-(2-hydroxyethoxy)-2-methoxyphenyl]-4-oxo-2-thioxo-3,4-dihydropyrimidin-1(2H)-yl}acetamide] | 4720 1/s per M
COc1ccc(-c2cc(=O)[nH]c(=S)n2CC(=O)N[C@@H]2CCNC2)c(OC)c1 [Example 388, 2-[6-(2,4-dimethoxyphenyl)-4-oxo-2-thioxo-3,4-dihydropyrimidin-1(2H)-yl]-N-[(3R)-pyrrolidin-3-yl]acetamide] | 8690 1/s per M
COc1ccc(-c2cc(=O)[nH]c(=S)n2CC(=O)N2CC[C@@H](N)C2)c(OC)c1 [Example 389, 1-{2-[(3R)-3-aminopyrrolidin-1-yl]-2-oxoethyl}-6-(2,4-dimethoxyphenyl)-2-thioxo-2,3-dihydropyrimidin-4(1H)-one] | 4910 1/s per M
COc1ccc(-c2cc(=O)[nH]c(=S)n2CC(=O)N(C)CCN)c(OC)c1 [Example 390, N-(2-aminoethyl)-2-[6-(2,4-dimethoxyphenyl)-4-oxo-2-thioxo-3,4-dihydropyrimidin-1(2H)-yl]-N-methylacetamide] | 6250 1/s per M
